In patent US9273057B2 (Bristol-Myers Squibb Company, priority 2012, dated 2016):
pIC50: −log10 of the molar value.

Biological target: CK2A1 (CK2α/β) (Homo sapiens, UniProt P68400)
Assay: CK2 kinase assay, CK2A1 (CK2α/β)
Assay type: biochemical
Conditions: Table A; read-out: CK2A1 (CK2α/β) (IC50)

Chain of CK2A1 (CK2α/β) (P68400 whole entry, species assumed): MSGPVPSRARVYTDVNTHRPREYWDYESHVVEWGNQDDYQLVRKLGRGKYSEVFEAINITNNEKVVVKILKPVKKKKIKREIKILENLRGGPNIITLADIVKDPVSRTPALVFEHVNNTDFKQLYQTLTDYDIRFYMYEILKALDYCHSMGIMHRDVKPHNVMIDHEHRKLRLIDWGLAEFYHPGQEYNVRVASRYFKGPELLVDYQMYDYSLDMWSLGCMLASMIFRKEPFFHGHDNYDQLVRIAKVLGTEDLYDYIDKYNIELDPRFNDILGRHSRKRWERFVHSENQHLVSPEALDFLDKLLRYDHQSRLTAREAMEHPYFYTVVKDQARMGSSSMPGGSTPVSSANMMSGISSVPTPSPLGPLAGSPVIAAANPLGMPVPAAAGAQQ
Chain of CK2A1 (CK2α/β) (P67870 whole entry partner, species assumed): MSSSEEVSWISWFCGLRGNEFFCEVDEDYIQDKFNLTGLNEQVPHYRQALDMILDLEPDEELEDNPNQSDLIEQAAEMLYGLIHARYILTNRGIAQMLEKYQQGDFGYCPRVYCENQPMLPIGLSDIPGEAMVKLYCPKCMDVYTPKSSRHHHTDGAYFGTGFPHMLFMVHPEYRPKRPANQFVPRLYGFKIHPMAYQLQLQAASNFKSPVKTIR

Compound	pIC50
N#Cc1cnc2c(NC3CC3)nc(Nc3cc(C(F)F)cc(N4CCN(C5CCOCC5)CC4)c3Cl)nn12 [Example 247, 2-((2-chloro-5-(difluoromethyl)-3-(4-(tetrahydro-2H-pyran-4-yl)-1-piperazinyl)phenyl)amino)-4-(cyclopropylamino)imidazo[2,1-f][1,2,4]triazine-7-carbonitrile]	8.76
N#Cc1cc(Nc2nc(NC3CC3)c3ncc(C#N)n3n2)c(Cl)c(N2CCC3(CC2)CN(Cc2ccc[nH]c2=O)C3)c1 [Example 805, 2-((2-chloro-5-cyano-3-(2-((2-oxo-1,2-dihydropyridin-3-yl)methyl)-2,7-diazaspiro[3.5]nonan-7-yl)phenyl)amino)-4-(cyclopropylamino)imidazo[2,1-f][1,2,4]triazine-7-carbonitrile]	8.27
CCNC(=O)OCC1CN(c2cc(C#N)cc(Nc3nc(NC4CC4)c4ncc(C#N)n4n3)c2Cl)CCO1 (racemic) [Example 699, (+/−)-(4-(2-chloro-5-cyano-3-((7-cyano-4-(cyclopropylamino)imidazo[2,1-f][1,2,4]triazin-2-yl)amino)phenyl)morpholin-2-yl)methyl ethylcarbamate]	9.01
CC(O)CN1CCC2CCN(c3cc(C#N)cc(Nc4nc(NC5CC5)c5ncc(C#N)n5n4)c3Cl)CC21 (racemic) [Example 460, (+/−)-2-((2-chloro-5-cyano-3-(1-(2-hydroxypropyl)hexahydro-1H-pyrrolo[2,3-c]pyridin-6(2H)-yl)phenyl)amino)-4-(cyclopropylamino)imidazo[2,1-f][1,2,4]triazine-7-carbonitrile]	8.79
CN(CCC#N)Cc1cc(C#N)cc(Nc2nc(NC3CC3)c3ncc(C#N)n3n2)c1Cl [Example 464, 2-[(2-chloro-5-cyano-3-{[(2-cyanoethyl)(methyl)amino]methyl}phenyl)amino]-4-(cyclopropylamino)imidazo[2,1-f][1,2,4]triazine-7-carbonitrile]	9.24
COCCC(=O)N1CC(N2CCN(c3cc(C#N)cc(Nc4nc(NC5CC5)c5ncc(C#N)n5n4)c3Cl)CC2)C1 [Example 482, 2-[(2-chloro-5-cyano-3-{4-[1-(3-methoxypropanoyl)azetidin-3-yl]piperazin-1-yl}phenyl)amino]-4-(cyclopropylamino)imidazo[2,1-f][1,2,4]triazine-7-carbonitrile]	8.82
COC(=O)N[C@H]1CCN(c2cc(C#N)cc(Nc3nc(NC4CC4)c4ncc(C#N)n4n3)c2Cl)C[C@@H]1OC(=O)CN [Example 193, (3S,4S)-1-(2-chloro-5-cyano-3-((7-cyano-4-(cyclopropylamino)imidazo[2,1-f][1,2,4]triazin-2-yl)amino)phenyl)-4-((methoxycarbonyl)amino)-3-piperidinyl glycinate]	8.22
N#Cc1cc(CN2CCC(C(N)=O)CC2)c(Cl)c(Nc2nc(NC3CC3)c3ncc(C#N)n3n2)c1 [Example 471, 1-[(2-chloro-5-cyano-3-{[7-cyano-4-(cyclopropylamino)imidazo[2,1-f][1,2,4]triazin-2-yl]amino}phenyl)methyl]piperidine-4-carboxamide]	9.06
CS(=O)(=O)N1CCN(CC(O)c2cc(C#N)cc(Nc3nc(NC4CC4)c4ncc(C#N)n4n3)c2Cl)CC1 (stereo not drawn) [Example 687, 2-((2-chloro-5-cyano-3-(1-hydroxy-2-(4-(methylsulfonyl)piperazin-1-yl)ethyl)phenyl)amino)-4-(cyclopropylamino)imidazo[2,1-f][1,2,4]triazine-7-carbonitrile]	9.00
COCCN1CC(N2CCN(c3cc(C#N)cc(Nc4nc(NC5CC5)c5ncc(C#N)n5n4)c3Cl)CC2)C1 [Example 61, 2-((2-chloro-5-cyano-3-(4-(1-(2-methoxyethyl)-3-azetidinyl)-1-piperazinyl)phenyl)amino)-4-(cyclopropylamino) imidazo[2,1-f][1,2,4] triazine-7-carbonitrile]	9.02
N#Cc1cnc2c(NC3CC3)nc(Nc3cc(C(F)F)cc(N4CC(NCC(O)CO)C4)c3Cl)nn12 (racemic) [Example 261, (+/−) 2-((2-chloro-5-(difluoromethyl)-3-(3-((2,3-dihydroxypropyl)amino)-1-azetidinyl)phenyl)amino)-4-(cyclopropylamino)imidazo[2,1-f][1,2,4]triazine-7-carbonitrile]	8.61
CN1C[C@H]2C[C@@H]1CN2c1cc(C#N)cc(Nc2nc(NC3CC3)c3ncc(C#N)n3n2)c1Cl [Example 5, 2-((2-chloro-5-cyano-3-((1R,4R)-5-methyl-2,5-diazabicyclo[2.2.1]hept-2-yl)phenyl)amino)-4-(cyclopropylamino)imidazo [2,1-f][1,2,4]triazine-7-carbonitrile]	9.36

Now from value to compound:

pIC50	Compound
8.76	CCNc1nc(Nc2cc(C#N)cc(N3CC[C@H]4[C@H](C3)OC(=O)N4C3COC3)c2Cl)nn2c(C#N)cnc12 [Example 840, 2-((2-chloro-5-cyano-3-((3aS,7aS)-1-(oxetan-3-yl)-2-oxohexahydrooxazolo[5,4-c]pyridin-5(2H)-yl)phenyl)amino)-4-(ethylamino)imidazo[2,1-f][1,2,4]triazine-7-carbonitrile]
9.37	N#Cc1cc(Nc2nc(NC3CC3)c3ncc(C#N)n3n2)c(F)c(C2CCN(C3COC3)CC2)c1 [Example 384, 2-((5-cyano-2-fluoro-3-(1-(oxetan-3-yl)piperidin-4-yl)phenyl)amino)-4-(cyclopropylamino)imidazo[2,1-f][1,2,4]triazine-7-carbonitrile]
9.21	CC(=O)NN1CCN(c2cc(C#N)cc(Nc3nc(NC4CC4)c4ncc(C#N)n4n3)c2Cl)CC1 [Example 789, N-(4-(2-chloro-5-cyano-3-((7-cyano-4-(cyclopropylamino)imidazo[2,1-f][1,2,4]triazin-2-yl)amino)phenyl)piperazin-1-yl)acetamide]
9.27	N#Cc1cc(CN2CCOCC2)c(Cl)c(Nc2nc(NC3CC3)c3ncc(C#N)n3n2)c1 [Example 404, 2-((2-chloro-5-cyano-3-(morpholinomethyl)phenyl)amino)-4-(cyclopropylamino)imidazo[2,1-f][1,2,4]triazine-7-carbonitrile]
8.30	COC(CO)CNC1CN(c2cc(C(F)F)cc(Nc3nc(NC4CC4)c4ncc(C#N)n4n3)c2Cl)C1 (racemic) [Example 262, (+/−) 2-((2-chloro-5-(difluoromethyl)-3-(3-((3-hydroxy-2-methoxypropyl)amino)-1-azetidinyl)phenyl)amino)-4-(cyclopropylamino)imidazo[2,1-f][1,2,4]triazine-7-carbonitrile]
8.38	CC1(C(O)c2cc(C#N)cc(Nc3nc(NC4CC4)c4ncc(C#N)n4n3)c2Cl)COC1 (stereo not drawn) [Example 657, 2-((2-chloro-5-cyano-3-(hydroxy(3-methyloxetan-3-yl)methyl)phenyl)amino)-4-(cyclopropylamino)imidazo[2,1-f][1,2,4]triazine-7-carbonitrile]
8.57	N#Cc1cc(Nc2nc(NC3CC3)c3ncc(C#N)n3n2)c(Cl)c(C(O)C2CCNCC2)c1 (stereo not drawn) [Example 654, 2-((2-chloro-5-cyano-3-(hydroxy(piperidin-4-yl)methyl)phenyl)amino)-4-(cyclopropylamino)imidazo[2,1-f][1,2,4]triazine-7-carbonitrile]
8.89	CCNc1nc(Nc2cc(C#N)cc(N3CCN(CC(C)O)CC3)c2Cl)nn2c(C#N)cnc12 (stereo in doubt) [Example 429, 2-((2-chloro-5-cyano-3-(4-((2R)-2-hydroxypropyl)-1-piperazinyl)phenyl)amino)-4-(ethylamino)imidazo[2,1-f][1,2,4]triazine-7-carbonitrile]
8.74	CN1CCCN(c2cc(C#N)cc(Nc3nc(NC4CC4)c4ncc(C#N)n4n3)c2Cl)C(=O)C1 [Example 635, 2-((2-chloro-5-cyano-3-(4-methyl-2-oxo-1,4-diazepan-1-yl)phenyl)amino)-4-(cyclopropylamino)imidazo[2,1-f][1,2,4]triazine-7-carbonitrile]
8.97	CN[C@@H]1CCN(c2cc(C#N)cc(Nc3nc(NC4CC4)c4ncc(C#N)n4n3)c2Cl)C[C@H]1O (racemic) [Example 186, (+/−)-2-((2-chloro-5-cyano-3-((3R,4R)-3-hydroxy-4-(methylamino)piperidin-1-yl)phenyl)amino)-4-(cyclopropylamino)imidazo[2,1-f][1,2,4]triazine-7-carbonitrile]
9.31	CN1CCCC12CCN(c1cc(C#N)cc(Nc3nc(NC4CC4)c4ncc(C#N)n4n3)c1Cl)C2 (racemic) [Example 25, (+/−) 2-((2-chloro-5-cyano-3-(1-methyl-1,7-diazaspiro[4.4]non-7-yl)phenyl)amino)-4-(cyclopropylamino)imidazo [2,1-f][1,2,4]triazine-7-carbonitrile]
9.21	N#Cc1cc(Nc2nc(NC3CC3)c3ncc(C#N)n3n2)c(Cl)c(N2CCC3(CCCN3)C2)c1 (racemic) [Example 31, (+/−) 2-((2-chloro-5-cyano-3-(1,7-diazaspiro[4.4]non-7-yl)phenyl)amino)-4-(cyclopropylamino)imidazo [2,1-f][1,2,4]triazine-7-carbonitrile]
8.93	CC(=O)NCC1CN(c2cc(C#N)cc(Nc3nc(NC4CC4)c4ncc(C#N)n4n3)c2Cl)CCO1 (stereo not drawn) [Example 712, N-{[4-(2-chloro-5-cyano-3-{[7-cyano-4-(cyclopropylamino)imidazo[2,1-f][1,2,4]triazin-2-yl]amino}phenyl)morpholin-2-yl]methyl}acetamide]
8.71	CC(C)(O)C1CCN(CCCc2cc(Cl)c(Nc3nc(NC4CC4)c4ncc(C#N)n4n3)cc2C#N)CC1 [Example 568, 2-((2-chloro-5-cyano-4-(3-(4-(2-hydroxypropan-2-yl)piperidin-1-yl)propyl)phenyl)amino)-4-(cyclopropylamino)imidazo[2,1-f][1,2,4]triazine-7-carbonitrile]
8.79	N#Cc1cc(NC(=O)CN2CCOCC2)c(Cl)c(Nc2nc(NC3CC3)c3ncc(C#N)n3n2)c1 [Example 621, N-(2-chloro-5-cyano-3-((7-cyano-4-(cyclopropylamino)imidazo[2,1-f][1,2,4]triazin-2-yl)amino)phenyl)-2-morpholinoacetamide]
